According to patent publication US20110044907A1, “IN VIVO SCREENING ASSAYS” (priority 2009, published 2011):
Where a name gives a salt, the structure may show the parent alone.

Columns and labels:
BxPC-3-GFP tumor cells = experiment: Surgical orthotopic implantation of BxPC-3-GFP pancreatic tumor cells in nude mice; assay type: in vivo, mouse; settings: female NCr nu/nu mice; AB0023 30 mg/kg IP twice per week 6 weeks; Gemzar 200 mg/kg IP once per week 3 weeks
Description: Tumor formation and metastasis are monitored by fluorescence imaging.
Approximately 75 female nude mice (NCr nu/nu), 5-6 weeks old, are anesthetized by intraperitoneal injection of a solution of 100 mg/kg ketamine and 5 mg/kg xylazine. Under anesthesia, BxPC-3-GFP tumor cells are surgically implanted, by suturing into the pancreas. […] Each group contains 15 animals, and all administrations are intraperitoneal.
Body weight is determined once per week.
At the conclusion of the study, blood is collected by cardiac puncture and one ml is used for preparation of serum.
The other half is snap frozen for RNA isolation.

[1] = system: MDA-MB-231-luc-D3H2LN cells; experiment: Breast tumor metastasis model, intracardiac injection, bioluminescent imaging; assay type: in vivo, mouse; settings: AB0023 30 mg/kg IP twice per week; taxol 5 mg/kg daily
Description: In this model system, MDA-MB-231-luc-D3H2LN cells (Caliper Life Sciences, Hopkinton, Mass.), a derivative of a human breast cancer cell line that has been stably transfected with a luciferase gene were introduced into female nude mice by intracardiac injection. The cells are disseminated through the circulation, and the occurrence and location of metastases are determined by in vivo bioluminescent imaging (BLI).
Approximately 80 female nude mice (NCr nu/nu), 8-10 weeks old, were anesthetized by intraperitoneal injection of a solution of 100 mg/kg ketamine and 5 mg/kg xylazine. […] Bioluminescence from whole body and lung projection was measured and expressed as photons per second. If the ratio of whole body luminescence to lung luminescence was less than 3, the mouse was excluded from the study. […]
Ventral and dorsal views of the animals were obtained by in vivo bioluminescent imaging (BLI) on days 0, 7, 10, 13, 16, 21, 24 AND 28; using the IVIS®-Spectrum imaging system (Caliper Life Sciences, Hopkinton, Mass.). Data were analyzed using Living Image 3.0 Software (Caliper Life Sciences, Hopkinton, Mass.).
Body weight was measured once per week for the first two weeks of the study, then three times per week until the conclusion of the study. […]

SMILES | mean tumor volume (BxPC-3-GFP tumor cells) | survival advantage compared to vehicle-treated animals [1]
Nc1ccn([C@@H]2O[C@H](CO)[C@@H](O)C2(F)F)c(=O)n1 [Gemzar, gemcitabine-HCl] | reduced | 
CC(=O)O[C@H]1C(=O)[C@@]2(C)[C@H]([C@H](OC(=O)c3ccccc3)[C@]3(O)C[C@H](OC(=O)[C@H](O)[C@@H](NC(=O)c4ccccc4)c4ccccc4)C(C)=C1C3(C)C)[C@]1(OC(C)=O)CO[C@@H]1C[C@@H]2O [taxol] |  | not observed
